Results reported in patent US4277496A, “Methods of treating mammals suffering from inflammation and pain” (Laboratorios Bago S.A., priority 1980, dated 1981).

Experiments:
[1] = test system: Carrageenin induced edema; test: Anti-inflammatory Activity (Carrageenin induced edema test); format: in vivo, rat (male Sprague Dawley); settings: for % Edema Inhibition, 1 hour / % Edema Inhibition, 3 hours / % Edema Inhibition, 5 hours: oral, 30 min before carrageenin, dose mg/kg: ASA 100, XAA 120, XAA ester 196 (eq. 120 XAA), TAA 60, TAA ester 84.5 (eq. 60 TAA); for % Edema Inhibition, 1 hour: 1 hour after carrageenin; for % Edema Inhibition, 3 hours: 3 hours after carrageenin; for % Edema Inhibition, 5 hours: 5 hours after carrageenin; for anti-inflammatory versus antinociceptive action: conclusion in words from Examples 6 and 7
Experimental: Anti-inflammatory Activity (Carrageenin induced edema test)
Fifteen to twenty male rats of Sprague Dawley strain weighing 150-200 g, were employed for each compound tested. 0.1 ml of 1% carrageenin saline suspension was injected into the subplantar region of the right hind-paw. The test compounds were orally administered 30 minutes prior to the injection of carrageenin and the foot volume was determined 1,3 and 5 hours after the injection of carrageenin. The percent swelling in the foot was obtained by comparing the volume before and after the injection of carrageenin, and the rate of inhibition in the treated animals was calculated.

[2] = test system: response threshold on applying pressure to the tail; test: Analgesic Activity: Tail pressure test; format: in vivo, mouse (male Rockland); settings: oral; 15 and 60 min after administration; relative potency (control 0, ASA 1.00); dose mg/kg: ASA 100, XAA 50, XAA ester 74 (eq. 50 XAA), TAA 50, TAA ester 82 (eq. 50 TAA)
Experimental: Tail pressure test: Ten male mice of Rockland strain weighing 20-25 g were used for each compound tested. The response threshold on applying pressure to the tail was determined with an analgesy meter at 15 and 60 minutes after oral administration of the test compound. The pressure at which a struggle was elicited was read.

[3] = test system: pain threshold for the inflamed feet (carrageenin); test: Analgesic Activity: Randall-Selitto's method; format: in vivo, mouse (male Rockland); settings: oral, 30 min before carrageenin; hourly for 3 hours; relative potency (control 0); dose mg/kg: ASA 100, XAA 50, XAA ester 74 (eq. 50 XAA), TAA 50, TAA ester 82 (eq. 50 TAA)
Experimental: Randall-Selitto's method: Ten male mice of Rockland strain weighing 25 g were used for each compound tested. 0.1 ml of 1% carrageenin saline suspension was injected into the subplantar region of the right foot. The test compounds were orally administered 30 minutes before the injection. At hourly intervals for 3 hours after the carrageenin injection, the pain threshold for the inflammed feet determining was measured the amount of pressure with an analgesy meter.

gastric epithelium = test: Influence on the gastro-intestinal tract (ulceration, pylorus-ligated, method of Shay et al.); format: in vivo, rat (male Sprague Dawley); settings: oral, dose mg/kg: phenylbutazone 75, ASA 100, XAA 120, XAA ester 196, TAA 60, TAA ester 84.5; for Increase (of ulceration evaluation): increase over control (distilled water, 3.0), 1 hour; for Evaluation (ulceration of the gastric epithelium): 1 hour after administration, score 0=no hemorrhage sites to 6=perforated ulcer, control 3.0
Experimental: Influence on the gastro-intestinal tract
Ten male rats of Sprague Dawley strain, weighing 200-300 g were used for each compound tested. According to the method of Shay et al. (Shay, H., Komapov, S. A., Feb. S. S., Meranir, D., Gruenstein, M., Siplet, H. Gastroenterology 5, 43, 1945), under anesthesia, the pylorus was ligated and 4 hours later test compounds were orally administered. The animal was sacrificed 1 hour after compound administration. The stomach was removed and examined for macroscopic damage. The ulceration of the gastric epithelium was evaluated by the following evaluation: 0=no hemorrhage sites; 1=some isolated hemorrhagic sites; 2=redness of the gastric epithelium; 3=1 to 5 small ulcers with a diameter smaller than 3 mm; 4=many small ulcers; 5=ulcers-greater than 3 mm; 6=perforated ulcer.

Structure (SMILES)	% Edema Inhibition, 1 hour [1]	% Edema Inhibition, 3 hours [1]	% Edema Inhibition, 5 hours [1]	Relative strength, Tail pressure test [2]	Relative strength, Randall-Selitto test [3]	Increase (of ulceration evaluation) (gastric epithelium)	Evaluation (ulceration of the gastric epithelium) (gastric epithelium)	anti-inflammatory versus antinociceptive action [1]
O=C(O)c1ccccc1Nc1cccc(C(F)(F)F)c1 [N-(3'-trifluorotolyl)-anthranylic acid]	24.3%	29.3%	28.3%	0.5	5.3	1.9	4.9	
CC(C)(C)C(=O)OCOC(=O)c1ccccc1Nc1cccc(C(F)(F)F)c1 [Pivaloyloxymethyl N(3'-trifluorotolyl)-anthranylate]	40.4%	40.7%	32.4%	1.02	8.7	0.6	3.6	act as anti-inflammatory agents more than as antinociceptive agents
CC(=O)Oc1ccccc1C(=O)O [Acetylsalicylic acid (ASA), Acetylsalicylic acid]	3.8%	24.8%	25.3%	1.00	1.05	1.1	4.1	
Cc1cccc(Nc2ccccc2C(=O)O)c1C [N-(2',3'-xylyl) anthranylic acid (XAA), N-(2',3'-xylyl) anthranylic acid]	19.32%	24.7%	23.4%	0.2	1.04	1.2	4.2	
Cc1cccc(Nc2ccccc2C(=O)OCOC(=O)C(C)(C)C)c1C [Pivaloyloxymethyl N-(2',3'-xylyl)anthranylate]	33.3%	36.4%	31.3%	0.48	1.74	0.4	3.4	act as anti-inflammatory agents more than as antinociceptive agents
CCCCC1C(=O)N(c2ccccc2)N(c2ccccc2)C1=O [Phenylbutazone]						2.5	5.5	
